Reference: the NIST ThermoML archive (doi:10.1021/acs.jced.8b00854)
Numbers after ± are expanded uncertainties.

What was measured:
[1] = xn = mol fraction of the nth substance listed; conditions: 100 kPa, Liquid, Vibrating tube method
[2] = refractive index (Na D-line) (dimensionless); xn = mol fraction of the nth substance listed; conditions: 100 kPa, Liquid, Standard Abbe refractometry

CCCCCCCCOS(=O)(=O)[O-].CCCCn1cc[n+](C)c1 [1-butyl-3-methylimidazolium octyl sulfate] + O
Conditions	mass density, [1] [kg/m3]	refractive index, [2]
293.15 K, x1 = 0.1002	1048.11 ± 2	1.4235 ± 0.0027
293.15 K, x1 = 0.2002	1060.01 ± 2	1.4455 ± 0.0016
293.15 K, x1 = 0.3004	1063.92 ± 2	1.4555 ± 0.0016
293.15 K, x1 = 0.4004	1065.86 ± 2	1.461 ± 0.0016
293.15 K, x1 = 0.501	1066.97 ± 2	1.464 ± 0.0016
293.15 K, x1 = 0.5998	1067.84 ± 2	1.467 ± 0.0016
293.15 K, x1 = 0.6988	1068.5 ± 2	1.4685 ± 0.0017
293.15 K, x1 = 0.8	1069.33 ± 2	1.47 ± 0.0016
293.15 K, x1 = 0.9018	1070.47 ± 2	1.4705 ± 0.0016
303.15 K, x1 = 0.1002	1041.72 ± 2	1.422 ± 0.002
303.15 K, x1 = 0.2002	1052.71 ± 2	1.4435 ± 0.0016
303.15 K, x1 = 0.3004	1057.16 ± 2	1.453 ± 0.002
303.15 K, x1 = 0.4004	1059.15 ± 2	1.4585 ± 0.0016
303.15 K, x1 = 0.501	1060.3 ± 2	1.462 ± 0.002
303.15 K, x1 = 0.5998	1061.29 ± 2	1.4645 ± 0.0016
303.15 K, x1 = 0.6988	1061.97 ± 2	1.466 ± 0.002
303.15 K, x1 = 0.8	1062.8 ± 2	1.4675 ± 0.0017
303.15 K, x1 = 0.9018	1063.98 ± 2	1.4685 ± 0.0017
313.15 K, x1 = 0.1002	1035.13 ± 2	1.4215 ± 0.0016
313.15 K, x1 = 0.2002	1046.53 ± 2	1.4415 ± 0.0016
313.15 K, x1 = 0.3004	1050.37 ± 2	1.4525 ± 0.0016
313.15 K, x1 = 0.4004	1052.42 ± 2	1.457 ± 0.0016
313.15 K, x1 = 0.501	1053.61 ± 2	1.4595 ± 0.0016
313.15 K, x1 = 0.5998	1054.71 ± 2	1.462 ± 0.0016
313.15 K, x1 = 0.6988	1055.42 ± 2	1.4635 ± 0.0017
313.15 K, x1 = 0.8	1056.28 ± 2	1.465 ± 0.0017
313.15 K, x1 = 0.9018	1057.53 ± 2	1.466 ± 0.0017
323.15 K, x1 = 0.1002	1028.37 ± 2	1.421 ± 0.0016
323.15 K, x1 = 0.2002	1039.57 ± 2	1.4405 ± 0.0016
323.15 K, x1 = 0.3004	1043.56 ± 2	1.45 ± 0.0016
323.15 K, x1 = 0.4004	1045.67 ± 2	1.4555 ± 0.0016
323.15 K, x1 = 0.501	1046.92 ± 2	1.457 ± 0.0016
323.15 K, x1 = 0.5998	1048.14 ± 2	1.46 ± 0.0016
323.15 K, x1 = 0.6988	1048.87 ± 2	1.461 ± 0.0017
323.15 K, x1 = 0.8	1049.77 ± 2	1.462 ± 0.0017
323.15 K, x1 = 0.9018	1051.07 ± 2	1.4635 ± 0.0017
333.15 K, x1 = 0.1002	1021.44 ± 2	1.419 ± 0.0016
333.15 K, x1 = 0.2002	1032.54 ± 2	1.44 ± 0.0016
333.15 K, x1 = 0.3004	1036.7 ± 2	1.4495 ± 0.0016
333.15 K, x1 = 0.4004	1038.91 ± 2	1.4535 ± 0.0016
333.15 K, x1 = 0.501	1040.19 ± 2	1.4545 ± 0.0016
333.15 K, x1 = 0.5998	1041.4 ± 2	1.4575 ± 0.0016
333.15 K, x1 = 0.6988	1042.35 ± 2	1.4585 ± 0.0016
333.15 K, x1 = 0.8	1043.27 ± 2	1.46 ± 0.0016
333.15 K, x1 = 0.9018	1044.63 ± 2	1.461 ± 0.0017
343.15 K, x1 = 0.1002	1014.33 ± 2	1.419 ± 0.0029
343.15 K, x1 = 0.2002	1025.58 ± 2	1.4395 ± 0.0017
343.15 K, x1 = 0.3004	1029.67 ± 2	1.4465 ± 0.0017
343.15 K, x1 = 0.4004	1032.07 ± 2	1.452 ± 0.0017
343.15 K, x1 = 0.501	1033.23 ± 2	1.453 ± 0.0016
343.15 K, x1 = 0.5998	1034.54 ± 2	1.4565 ± 0.0016
343.15 K, x1 = 0.6988	1035.66 ± 2	1.457 ± 0.0016
343.15 K, x1 = 0.8	1036.82 ± 2	1.458 ± 0.0016
343.15 K, x1 = 0.9018	1038.23 ± 2	1.459 ± 0.0016

CCCCCCCC[n+]1ccn(C)c1.F[B-](F)(F)F [1-methyl-3-octylimidazolium tetrafluoroborate] + O
Conditions	mass density, [1] [kg/m3]	refractive index, [2]
293.15 K, x1 = 0.3005	1084.34 ± 2	1.4165 ± 0.0018
293.15 K, x1 = 0.4006	1089.21 ± 2	1.4205 ± 0.0016
293.15 K, x1 = 0.5002	1094.12 ± 2	1.424 ± 0.0016
293.15 K, x1 = 0.6001	1098.16 ± 2	1.4265 ± 0.0016
293.15 K, x1 = 0.7006	1100.51 ± 2	1.4285 ± 0.0016
293.15 K, x1 = 0.8004	1103.28 ± 2	1.4305 ± 0.0016
293.15 K, x1 = 0.9015	1104.81 ± 2	1.4315 ± 0.0016
303.15 K, x1 = 0.3005	1076.96 ± 2	1.414 ± 0.0016
303.15 K, x1 = 0.4006	1082.09 ± 2	1.419 ± 0.0016
303.15 K, x1 = 0.5002	1087.07 ± 2	1.422 ± 0.0016
303.15 K, x1 = 0.6001	1091.18 ± 2	1.425 ± 0.0016
303.15 K, x1 = 0.7006	1093.59 ± 2	1.4265 ± 0.0016
303.15 K, x1 = 0.8004	1096.42 ± 2	1.428 ± 0.0016
303.15 K, x1 = 0.9015	1098.01 ± 2	1.4295 ± 0.0017
313.15 K, x1 = 0.3005	1069.66 ± 2	1.413 ± 0.0016
313.15 K, x1 = 0.4006	1074.86 ± 2	1.4165 ± 0.0016
313.15 K, x1 = 0.5002	1080 ± 2	1.4205 ± 0.0016
313.15 K, x1 = 0.6001	1084.21 ± 2	1.423 ± 0.0016
313.15 K, x1 = 0.7006	1086.68 ± 2	1.4245 ± 0.0016
313.15 K, x1 = 0.8004	1089.58 ± 2	1.4265 ± 0.0016
313.15 K, x1 = 0.9015	1091.22 ± 2	1.427 ± 0.0016
323.15 K, x1 = 0.3005	1061.92 ± 2	1.4125 ± 0.0016
323.15 K, x1 = 0.4006	1067.52 ± 2	1.416 ± 0.0016
323.15 K, x1 = 0.5002	1072.9 ± 2	1.419 ± 0.0016
323.15 K, x1 = 0.6001	1077.21 ± 2	1.422 ± 0.0016
323.15 K, x1 = 0.7006	1079.77 ± 2	1.423 ± 0.0016
323.15 K, x1 = 0.8004	1082.8 ± 2	1.424 ± 0.0016
323.15 K, x1 = 0.9015	1084.48 ± 2	1.4255 ± 0.0016
333.15 K, x1 = 0.3005	–	1.412 ± 0.0016
333.15 K, x1 = 0.4006	–	1.415 ± 0.0016
333.15 K, x1 = 0.5002	–	1.4185 ± 0.0016
333.15 K, x1 = 0.6001	–	1.4195 ± 0.0016
333.15 K, x1 = 0.7006	–	1.421 ± 0.0016
333.15 K, x1 = 0.8004	–	1.4225 ± 0.0016
333.15 K, x1 = 0.9015	–	1.4235 ± 0.0016
343.15 K, x1 = 0.3005	1041.36 ± 2	1.412 ± 0.002
343.15 K, x1 = 0.4006	1049.84 ± 2	1.414 ± 0.0016
343.15 K, x1 = 0.5002	1057.37 ± 2	1.417 ± 0.0016
343.15 K, x1 = 0.6001	1062.23 ± 2	1.419 ± 0.0016
343.15 K, x1 = 0.7006	1065.07 ± 2	1.419 ± 0.0016
343.15 K, x1 = 0.8004	1069.34 ± 2	1.4205 ± 0.0016
343.15 K, x1 = 0.9015	1070.96 ± 2	1.4215 ± 0.0016

CCCCCCn1cc[n+](C)c1.F[B-](F)(F)F [1-hexyl-3-methylimidazolium tetrafluoroborate] + O
Conditions	mass density, [1] [kg/m3]	refractive index, [2]
293.15 K, x1 = 0.3006	1117.21 ± 2	1.415 ± 0.0019
293.15 K, x1 = 0.4005	1125.26 ± 2	1.418 ± 0.0016
293.15 K, x1 = 0.4999	1132.22 ± 2	1.4195 ± 0.0017
293.15 K, x1 = 0.6008	1136.97 ± 2	1.422 ± 0.0016
293.15 K, x1 = 0.7004	1140.58 ± 2	1.4245 ± 0.0016
293.15 K, x1 = 0.7996	1143.29 ± 2	1.425 ± 0.0016
293.15 K, x1 = 0.8997	1145.34 ± 2	1.427 ± 0.0016
303.15 K, x1 = 0.3006	1109.91 ± 2	1.414 ± 0.0017
303.15 K, x1 = 0.4005	1117.8 ± 2	1.415 ± 0.0017
303.15 K, x1 = 0.4999	1125.06 ± 2	1.417 ± 0.0016
303.15 K, x1 = 0.6008	1129.88 ± 2	1.42 ± 0.0016
303.15 K, x1 = 0.7004	1133.55 ± 2	1.422 ± 0.0016
303.15 K, x1 = 0.7996	1136.29 ± 2	1.4235 ± 0.0016
303.15 K, x1 = 0.8997	1138.36 ± 2	1.425 ± 0.0016
313.15 K, x1 = 0.3006	1102.56 ± 2	1.409 ± 0.0017
313.15 K, x1 = 0.4005	1110.53 ± 2	1.412 ± 0.0016
313.15 K, x1 = 0.4999	1117.91 ± 2	1.4165 ± 0.0016
313.15 K, x1 = 0.6008	1122.81 ± 2	1.419 ± 0.0016
313.15 K, x1 = 0.7004	1126.54 ± 2	1.421 ± 0.0016
313.15 K, x1 = 0.7996	1129.34 ± 2	1.4215 ± 0.0016
313.15 K, x1 = 0.8997	1131.42 ± 2	1.423 ± 0.0016
323.15 K, x1 = 0.3006	1095.15 ± 2	1.408 ± 0.0016
323.15 K, x1 = 0.4005	1103.23 ± 2	1.4115 ± 0.0016
323.15 K, x1 = 0.4999	1110.76 ± 2	1.415 ± 0.0016
323.15 K, x1 = 0.6008	1115.77 ± 2	1.417 ± 0.0016
323.15 K, x1 = 0.7004	1119.58 ± 2	1.419 ± 0.0016
323.15 K, x1 = 0.7996	1122.43 ± 2	1.42 ± 0.0016
323.15 K, x1 = 0.8997	1124.55 ± 2	1.421 ± 0.0016
333.15 K, x1 = 0.3006	1087.71 ± 2	1.4075 ± 0.0016
333.15 K, x1 = 0.4005	1095.9 ± 2	1.4115 ± 0.0016
333.15 K, x1 = 0.4999	1103.62 ± 2	1.415 ± 0.0016
333.15 K, x1 = 0.6008	1108.78 ± 2	1.4155 ± 0.0016
333.15 K, x1 = 0.7004	1112.66 ± 2	1.417 ± 0.0016
333.15 K, x1 = 0.7996	1115.58 ± 2	1.418 ± 0.0016
333.15 K, x1 = 0.8997	1117.73 ± 2	1.419 ± 0.0017
343.15 K, x1 = 0.3006	1080.23 ± 2	1.4075 ± 0.002
343.15 K, x1 = 0.4005	1088.51 ± 2	1.4095 ± 0.0016
343.15 K, x1 = 0.4999	1096.51 ± 2	1.4125 ± 0.0017
343.15 K, x1 = 0.6008	1101.81 ± 2	1.414 ± 0.0016
343.15 K, x1 = 0.7004	1105.77 ± 2	1.4145 ± 0.0016
343.15 K, x1 = 0.7996	1108.76 ± 2	1.416 ± 0.0017
343.15 K, x1 = 0.8997	1110.94 ± 2	1.4165 ± 0.0017
